# According to patent US11304944B2, “MetAP2 inhibitors and methods of treating obesity” (SynDevRx, Inc., priority 2013, dated 2022):
# Where two headings read alike, the source gives them in different places.
# What was measured:
# [1] = cited from earlier work
# [2] = tested on: DIO C57Bl6 mice; assay: In vivo testing DIO C57Bl6 mice: weight changes, food consumption, body composition (Compound 16 vs TNP-470)
# Experimental: C57Bl6 male mice (N=6) thirteen weeks old with an average of weight of 34 g were ad libitum fed TD.06414 a high fat diet composed of 60% Kcal from fat (Harlan diet). On study day 1 animals were randomized into groups so that the average weight of each group was 33.9 g. […] Animals were weighed every other day. Food consumption was measured weekly. On day 33 gross pathology was performed to determine body composition.
# [3] = tested on: DIO C57Bl6 mice; assay: Efficacy of various compounds in DIO mouse model (body weight versus time); format: in vivo; settings: 2 mg/kg q4d sc
# Experimental: On study day 1 animals were randomized into groups so that the average weight of the mice in each group was 47 g. The mice were treated with either phosphate buffered saline (vehicle), or compounds as listed in Table 19 dissolved in vehicle (dorsal, subcutaneous administration).
# [4] = tested on: DIO Levin rats; assay: In vivo testing DIO Levin rats: weight changes, food consumption, insulin, leptin levels
# Experimental: CKD-732 as referred to herein is the hemitartrate salt of the following structure:
# Test articles were administered subcutaneously on an every 4 day (q4d) schedule in a diet-induced obesity (DIO) Levin-DS rat model. […] A dietary intervention (Standard Chow, Labdiet 5001; 3.4 kcal/g) was included to compare to the drug interventions. Upon arrival at three weeks of age, the male rats received ad libitum pellets of Harlan Diet TD.06414, 60% of calories from fat, 21% of calories from carbohydrate; 5.1 kcal/g. Prior to dosing the rats were randomized into groups of three animals with an average body weight of 595 gm. […] Compound 1 in the form of the hemitartrate and CKD-732 in the form of the hemitartrate were dissolved in ethanol prior to dilution with vehicle. All doses were administered at a volume of 5.0 ml/kg. […] On day 1, first dose, the rats were 14 weeks of age. Also on day 1, Group 2 was switched from the high fat diet to a standard chow diet; the remaining groups were maintained on a high fat diet for the duration of the study.
# (§1) Animals were weighed every other day. Food consumption was measured weekly. On an approximately weekly basis throughout the study, blood samples were taken for assessment of serum chemistries including glucose and insulin. On Day 48 all rats underwent a 4 hour fasted Oral Glucose Tolerance Test (OGTT). Animals were dosed orally (per os, PO) at 8 mL/kg 25% glucose (2 g/kg). On day 68, gross pathology was performed to determine body composition.
# [5] = tested on: DIO C57Bl/6 mice; assay: In vivo testing DIO mice schedule-dose response: weight, food intake, ipGTT, HOMA-ir data
# Experimental: Animals were dosed according to the schedule in Table 17 below.
# Compound dosing occurred between 9 and 10 am on the day of dosing. Groups 6 and 7 received a total of 17 doses. The q4d groups (1, 2, 3, 4, 8, 9) received a total of 9 doses. The q8d group (5) received a total of 5 drug doses. Body weight and food intake were measured every other day. Blood glucose was measured on Day −7, Day 0, Day 7, Day 14, Day 21 and Day 28 at 9:00 am in fed state (BG measured before dose on dosing days). BG was measured by glucometer. An intraperitoneal glucose tolerance test (ipGTT, 6 h fasting) was performed.
# The study was terminated on day 34. Liver and epididymal white adipose tissues (eWAT) were harvested, weighed and stored at −80° C. Sera was collected to determine: AST, ALT, ALP, CK, BUN, creatinine, calcium, potassium, sodium, chloride, total protein, albumin, total bilirubin, glucose, triglyceride and cholesterol. Insulin samples were measured using a commercial kit.
# [6] = tested on: DIO Levin rats; assay: Oral Glucose Tolerance Test (OGTT) Day 48 and HOMA-ir in DIO Levin rats; format: in vivo; settings: 1.15 mg/kg q4d sc;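 for Blood Glucose pre-OGTT: blood glucose in mg/dL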;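 for Blood Glucose, Time 120: blood glucose in mg/dL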;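 for Blood Glucose, Time 15: blood glucose in mg/dL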;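 for Blood Glucose, Time 30: blood glucose in mg/dL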;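 for Blood Glucose, Time 60: blood glucose in mg/dL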;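 for Blood Glucose, Time 90: blood glucose in mg/dL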
# Experimental: as §1
# [7] = qod (Cmpd 16 1 mg/kg qod), Day 33
compound,measurement,setting,value
"CO[C@@H]1[C@H](OC(=O)NC(=O)CCl)CC[C@]2(CO2)[C@H]1[C@@]1(C)O[C@@H]1CC=C(C)C [TNP-470, chloroacetylcarbamoylfumagillol, reference compound]",MTD,"[1]; in combination with paclitaxel, dosed three times per week",60 mg/m2
same,Body Weight Day 33,"[2]; 0.5 mg/kg/day, qod, sc",34.1 g
same,B.W.,[2]; [7],34.1 grams
same,Epididymal Fat,[2]; [7],1.54 grams
same,Inguinal Fat,[2]; [7],1.21 grams
same,Liver,[2]; [7],1.15 grams
same,Retroperitoneal Fat,[2]; [7],0.80 grams
same,Total Fat,[2]; [7],3.55 grams
poly[HPMA-co-MA-GFLG-N-(cis-4-aminocyclohexyl)carbamoylfumagillol] [Compound cis-16],"Group Avg. BW, Study Day 1",[3],47.0 g
same,"Group Avg. BW, Study Day 7",[3],42.7 g
same,"Group Avg. BW, Study Day 15",[3],42.6 g
same,"Group Avg. BW, Study Day 21",[3],40.9 g
same,"Group Avg. BW, Study Day 26",[3],40.6 g
same,BW change vs. vehicle,[3]; day 26,−12.0%
"COC1C(OC(=O)/C=C/c2ccc(OCCN(C)C)cc2)CC[C@]2(CO2)C1[C@@]1(C)O[C@@H]1CC=C(C)C (stereo partly drawn) [CKD-732, reference compound]",lower body weight than vehicle,[4]; 1.15 mg/kg Q4D,3.2%
same,Avg. Insulin Day 7,[4]; 1.15 mg/kg q4d sc,2.08 ng/mL
same,Avg. Insulin Day 15,[4]; 1.15 mg/kg q4d sc,1.91 ng/mL
same,Avg. Insulin Day 23,[4]; 1.15 mg/kg q4d sc,1.60 ng/mL
same,Avg. Insulin Day 48,[4]; 1.15 mg/kg q4d sc,1.56 ng/mL
same,Avg. Insulin Pre-dosing,[4]; 1.15 mg/kg q4d sc,2.58 ng/mL
same,Group Average Food Consumption Day 1-8,[4]; 1.15 mg/kg q4d sc,131.8 g
same,Group Average Food Consumption Day 9-15,[4]; 1.15 mg/kg q4d sc,110.5 g
same,Group Average Food Consumption Day 16-23,[4]; 1.15 mg/kg q4d sc,108.7 g
same,Group Average Food Consumption Day 24-30,[4]; 1.15 mg/kg q4d sc,133.9 g
same,Group Average Food Consumption Day 31-36,[4]; 1.15 mg/kg q4d sc,153.9 g
same,Group Average Food Consumption Day 37-43,[4]; 1.15 mg/kg q4d sc,148.7 g
same,Group Average Food Consumption Day 44-50,[4]; 1.15 mg/kg q4d sc,112.3 g
same,Group Average Food Consumption Day 51-57,[4]; 1.15 mg/kg q4d sc,135.0 g
same,Group Average Food Consumption Day 58-63,[4]; 1.15 mg/kg q4d sc,125.5 g
same,Group Average Food Consumption Day 63-68,[4]; 1.15 mg/kg q4d sc,61.9 g
same,Leptin Levels Day 29,[4]; 1.15 mg/kg q4d sc,4.30
same,Leptin Levels Pre-dose,[4]; 1.15 mg/kg q4d sc,4.43
same,"Leptin Levels, Day 29, % Change from Baseline",[4]; 1.15 mg/kg q4d sc,−3.0%
same,Final BW,"[4]; 1.15 mg/kg q4d sc, after 68 days, 60% fat diet",714.0 g
same,MTD,"[1]; every fourth day schedule, due to confusion and insomnia",15 mg/m2/day
same,"Glucose, ipGTT 0 min",[5]; 1 mg/kg Q2D,161.3 mg/dL
same,"Glucose, ipGTT 15 min",[5]; 1 mg/kg Q2D,469.2 mg/dL
same,"Insulin, ipGTT 0 min",[5]; 1 mg/kg Q2D,54.8 uU/ml
same,"Insulin, ipGTT 15 min",[5]; 1 mg/kg Q2D,89.3 uU/ml
same,"Glucose, ipGTT 0 min",[5]; 2 mg/kg q4d,182.6 mg/dL
same,"Glucose, ipGTT 15 min",[5]; 2 mg/kg q4d,498.6 mg/dL
same,"Insulin, ipGTT 0 min",[5]; 2 mg/kg q4d,99.8 uU/ml
same,"Insulin, ipGTT 15 min",[5]; 2 mg/kg q4d,118.3 uU/ml
same,response (weight loss) by schedule,"[5]; Q2D (QOD) schedule versus Q4D, FIG. 20",better response than the same average daily dose administered on a Q4D schedule
same,Blood Glucose pre-OGTT,[6],123 mg/dL
same,HOMA-ir (Insulin Sensitivity) 15 min,[6],49.0
same,HOMA-ir (Insulin Sensitivity) 30 min,[6],35.9
same,HOMA-ir (Insulin Sensitivity) Pre-dose,[6],13.6
same,"Blood Glucose, Time 15",[6]; OGTT,174 mg/dL
same,"Blood Glucose, Time 30",[6]; OGTT,171 mg/dL
same,"Blood Glucose, Time 60",[6]; OGTT,158 mg/dL
same,"Blood Glucose, Time 90",[6]; OGTT,153 mg/dL
same,"Blood Glucose, Time 120",[6]; OGTT,144 mg/dL
same,BW,[6]; at OGTT,686 g
